# Assay results from EP0584290B1, “ENDOTHELIN ANTAGONISTS” (WARNER-LAMBERT COMPANY, priority 1991, dated 1992).
# Square brackets hold non-standard residues; d marks the D form. Ends that are not written are not given here. Peptide text beside a SMILES is read from it. d1Nal = N[C@H](Cc1cccc2ccccc12)C(=O)O
# Columns and labels:
# [1] = target: endothelin receptor, rat heart ventricle; experiment: [125I]-ET-1 binding assay in rat heart ventricle; settings: [125I]-ET-1, rat heart ventricle (10 µg), 37°C, 2 hours
# Description: (§1) The compounds of Formula I are valuable antagonists of endothelin. […] Thus, the compounds of Formula I were tested for their ability to inhibit [^125I]-ET-1([^125I]-Endothelin-1) binding in a receptor assay. The binding of the compounds of Formula I is determined by incubation (37°C, 2 hours) of a compound of Formula I with [^125I]-ET-1 and the tissue (rat heart ventricle (10 µg)) in 50 mM Tris(hydroxymethyl)aminomethane hydrochloride (Tris-HCl) (pH 7.4), 5 mM ethylenediamine tetraacetic acid (EDTA), 2 mM ethylene glycol bis(β-aminoethyl ether)N,N,N',N'-tetraacetic acid (EGTA), 100 µM phenylmethylsulfonyl fluoride (PMSF), and 100 µM bacitracin containing protease inhibitors (total volume of 0.5 mL). IC50 values are calculated by weighing nonlinear regression curve-fitting to the mass-action (Langmuir) equation. The functional activity of compounds of Formula I is determined in Rat-1 cells by measuring intracellular levels of second messengers. Thus, cells were prelabeled with [^3H]-inositol and endothelin-stimulated accumulation of total [^3H]-inositol phosphates in the presence of Li^+ is monitored using anion exchange chromatography as described by Muldoon, L. L., et al, Journal of Biological Chemistry, Volume 264, pages 8529-8536 (1989) and Dudley, D. T., et al, Molecular Pharmacology, Volume 38, pages 370-377 (1990). Antagonist activity is assessed as the ability of added compounds to reduce endothelin-stimulated inositol phosphate accumulation. Antagonist activity was also measured by the ability of added compounds to reduce endothelin-stimulated arachidonic acid release in cultured vascular smooth muscle cells as (AAR) described in Reynolds, E., Mok, K., Faseb J., 1991, 5, A1066. The data in the table show the endothelin antagonist activity of representative compounds of Formula I. TABLE 1
# Rat-1 cells = target: T1, Rat-1 cells (Rattus norvegicus, UniProt P26684); experiment: Endothelin-stimulated inositol phosphate (IP) accumulation in Rat-1 cells; type: cell-based
# T1 sequence (P26684 21-426): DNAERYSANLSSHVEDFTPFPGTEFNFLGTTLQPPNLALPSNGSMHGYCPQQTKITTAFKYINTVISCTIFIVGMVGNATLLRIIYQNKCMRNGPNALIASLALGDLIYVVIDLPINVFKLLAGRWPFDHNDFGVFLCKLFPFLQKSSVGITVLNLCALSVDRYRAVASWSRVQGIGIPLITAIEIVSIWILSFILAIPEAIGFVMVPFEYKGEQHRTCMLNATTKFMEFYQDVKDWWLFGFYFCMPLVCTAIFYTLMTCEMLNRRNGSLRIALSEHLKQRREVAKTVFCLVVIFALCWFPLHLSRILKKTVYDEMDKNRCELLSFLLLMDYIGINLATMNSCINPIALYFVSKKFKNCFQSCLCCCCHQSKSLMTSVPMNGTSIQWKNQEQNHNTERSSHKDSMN
# Description: as §1, with “Antagonist activity is assessed as the ability of added compounds to reduce endothelin-stimulated inositol phosphate accumulation. Antagonist activity was also measured by the ability of added compounds to reduce endothelin-stimulated arachidonic acid release in cultured vascular smooth muscle cells as (AAR) described in Reynolds, E., Mok, K., Faseb J., 1991, 5, A1066. The data in the table show the endothelin antagonist activity of representative compounds of Formula I. TABLE 1” left out
# ET receptor = settings: relative to ET-1; cited from earlier work
Molecule,IC50 [1] [µM],further results
"CC[C@H](C)[C@H](NC(=O)[C@H](CC(=O)O)NC(=O)[C@H](CC(C)C)NC(=O)[C@@H](Cc1ccccc1)NC(C)=O)C(=O)N[C@H](C(=O)N[C@@H](Cc1c[nH]c2ccccc12)C(=O)O)[C@@H](C)CC [Example 1, Ac-D-Phe-Leu-Asp-Ile-Ile-Trp] (Ac-[dF]LDIIW-OH)",0.72,–
"CC[C@H](C)[C@H](NC(=O)[C@H](CC(=O)O)NC(=O)[C@H](CC(C)C)NC(=O)[C@H](N)Cc1cccc2ccccc12)C(=O)N[C@H](C(=O)N[C@@H](Cc1c[nH]c2ccccc12)C(=O)O)[C@@H](C)CC [Example 4, D-1-Nal-Leu-Asp-Ile-Ile-Trp] (H-[d1Nal]LDIIW-OH)",–,inhibition at 50 µM (Rat-1 cells): 53%
"CC[C@H](C)[C@H](NC(=O)[C@H](CC(=O)O)NC(=O)[C@H](CC(C)C)NC(=O)[C@@H](Cc1ccccc1)NC(C)=O)C(=O)N[C@@H](Cc1c[nH]c2ccccc12)C(=O)O [Example 6, Ac-D-Phe-Leu-Asp-Ile-Trp] (Ac-[dF]LDIW-OH)",24.5,–
"CC[C@@H](C)[C@@H](NC(=O)[C@@H](NC(=O)[C@@H](CC(=O)O)NC(=O)[C@H](CC(C)C)NC(=O)[C@@H](Cc1c[nH]cn1)NC(C)=O)[C@@H](C)CC)C(=O)N[C@@H](Cc1c[nH]c2ccccc12)C(=O)O [Example 7, Ac-D-His-Leu-D-Asp-Ile-D-Ile-Trp] (Ac-[dH]L[dD]I[dI]W-OH)",6.03,–
"CC[C@H](C)[C@H](NC(=O)[C@H](CC(=O)O)NC(=O)[C@@H](Cc1ccccc1)NC(C)=O)C(=O)N[C@H](C(=O)N[C@@H](Cc1c[nH]c2ccccc12)C(=O)O)[C@@H](C)CC [Example 11, Ac-D-Phe-Asp-Ile-Ile-Trp] (Ac-[dF]DIIW-OH)",2.15,–
"ET[1-20]: ET-1 analogue without the C-terminal amino acid (Trp-21) (CSCSSLMDKECVYFCHLDII; not fully specified (bridges); ends and bridges not checked; UniProt P05305 53-72, looked up, fragment)",–,less functional activity (ET receptor): approximately 1000 fold
